From patent US12509431B2, “1,4-dihydroquinazolinone compounds and uses thereof” (Edgewise Therapeutics, Inc., priority 2022, dated 2025)

What was measured:
Type in all cases: biochemical
[1] = tested on: Rabbit Skeletal myofibrils (rabbit psoas muscle); test: Myofibril ATPase assay (PK/LDH NADH-coupled), skeletal myofibrils
Description: (§1) Myofibril ATPase assays are known in the art to be useful in evaluating small molecules for the treatment of HCM and other cardiac indications. Myosin ATPase activity is assessed by using a coupled reaction system, in which ADP generated by the myosin ATPase function is coupled to the disappearance of NADH through the pyruvate kinase/lactate dehydrogenase (PK-LDH) system. ATPase activity produces ADP, which is used as a substrate for PK to produce pyruvate and regenerate ATP. The pyruvate is then used as a substrate by LDH to oxidize NADH to NAD+. The rate of the reaction is monitored through the time-dependent disappearance of NADH using absorbance at 340 nm, which, when the couple system is in stoichiometric excess, is directly correlated to the ATPase activity of the myosin. Inhibition of ATPase activity by the assayed compounds is indicated by a reduced rate of NADH loss, relative to vehicle-treated controls, over the experimental time window. Rabbit Skeletal and Porcine Ventricle are the primary sources of myofibril material.
(§2) Materials: The following stock solutions and reagents were used in the Myofibril ATPase Assay:
(§3) Stock Solutions of pCa buffer. Combine PIPES, CaCl2), and EGTA solutions with water. Adjust pH to 7.0 and bring final volume to 100 mL.
(§4) Buffer A & Buffer B. Prepare buffers A and B according to the table below.
(§5) Myofibril ATPase Assay Procedure: BSA, ATP, NADH, PEP, and DTT solutions were thawed at room temperature, then transferred to ice. Pellet-frozen myofibrils were transferred with approximately twice the required volume into a sufficiently large tube and capped. Myofibrils were thawed by rolling in a water bath for approximately 15 min at room temperature and cooled on ice. Buffers A and B were prepared by adjusting volumes as necessary for required number of wells and stored on ice. 0.5 μL of the compounds to be assayed were added into wells. 25 μL of Buffer A was dispensed into the wells, followed by 25 μL of Buffer B. The wells were measured for absorbance at 340 nm, using a kinetic protocol in which the wells are read every 1.5-2 min for 75 min. Assay data analysis was performed using a python script that filtered the raw data to retain those points falling between a starting and ending time and between a maximum and minimum absorbance, then used the filtered time-domain 340 nm absorbance data in each well to calculate a slope via linear regression analysis in units of mAU/min. Compound slopes were normalized between 100% and 0% activity, where 100% represented the slope of wells containing only compound vehicle, and fit to a 4-parameter logistic model. In addition to the fit parameters, the EC25% is calculated, relative to the 100% normalized value. In the case of inhibitors, EC50% is also calculated, if available. Fit parameters, calculated effective concentrations, filtered raw data, and calculated slopes were exported, in addition to compound-specific graphs of normalized ATPase activity versus concentration in μM.
Skeletal Myofibril Isolation:
Myofibrils from various animals and tissue types were acquired from a variety of sources: rabbit psoas muscle was purchased from Pel-Freez Biologicals (Rogers, AR) and porcine cardiac muscle was purchased from Exemplar Genetics. All myofibrils were prepared using a method based upon those described in Herrmann et al. (1993) and summarized here. Minced tissue was homogenized for 50 sec with a Polytron homogenizer into 10 volumes (relative to weight in grams) of Isolation Buffer A (50 mM Tris, pH 8.0, 0.1 M potassium acetate, 5 mM KCl, 2 mM DTT, 5 mM EDTA, 0.5% v/v Triton X-100) supplemented with 0.1 mM PMSF, 10 μM leupeptin, 5 μM pepstatin, and 0.5 mM sodium azide. The myofibrils were recovered by centrifugation (Beckman Allegra 6R, 1200 g, 10 min) and resuspended in 10 volumes Isolation Buffer B (Buffer A above without protease inhibitors or sodium azide). The myofibrils were further homogenized as before and recovered by centrifugation. […]

[2] = tested on: Porcine Atria myofibrils; test: Myofibril ATPase assay (PK/LDH NADH-coupled), atria myofibrils
Description: as §5

[3] = biological target: T1, Porcine Ventricle myofibrils (left ventricle of Yucatan minipigs) (Sus scrofa, UniProt P79293); test: Myofibril ATPase assay (PK/LDH NADH-coupled), ventricle myofibrils
T1 construct: Myofibrils from porcine cardiac muscle was isolated from the left ventricle of Yucatan minipigs; tissue Exemplar Genetics; host or cells: left ventricle of Yucatan minipigs
T1 sequence (P79293 whole entry): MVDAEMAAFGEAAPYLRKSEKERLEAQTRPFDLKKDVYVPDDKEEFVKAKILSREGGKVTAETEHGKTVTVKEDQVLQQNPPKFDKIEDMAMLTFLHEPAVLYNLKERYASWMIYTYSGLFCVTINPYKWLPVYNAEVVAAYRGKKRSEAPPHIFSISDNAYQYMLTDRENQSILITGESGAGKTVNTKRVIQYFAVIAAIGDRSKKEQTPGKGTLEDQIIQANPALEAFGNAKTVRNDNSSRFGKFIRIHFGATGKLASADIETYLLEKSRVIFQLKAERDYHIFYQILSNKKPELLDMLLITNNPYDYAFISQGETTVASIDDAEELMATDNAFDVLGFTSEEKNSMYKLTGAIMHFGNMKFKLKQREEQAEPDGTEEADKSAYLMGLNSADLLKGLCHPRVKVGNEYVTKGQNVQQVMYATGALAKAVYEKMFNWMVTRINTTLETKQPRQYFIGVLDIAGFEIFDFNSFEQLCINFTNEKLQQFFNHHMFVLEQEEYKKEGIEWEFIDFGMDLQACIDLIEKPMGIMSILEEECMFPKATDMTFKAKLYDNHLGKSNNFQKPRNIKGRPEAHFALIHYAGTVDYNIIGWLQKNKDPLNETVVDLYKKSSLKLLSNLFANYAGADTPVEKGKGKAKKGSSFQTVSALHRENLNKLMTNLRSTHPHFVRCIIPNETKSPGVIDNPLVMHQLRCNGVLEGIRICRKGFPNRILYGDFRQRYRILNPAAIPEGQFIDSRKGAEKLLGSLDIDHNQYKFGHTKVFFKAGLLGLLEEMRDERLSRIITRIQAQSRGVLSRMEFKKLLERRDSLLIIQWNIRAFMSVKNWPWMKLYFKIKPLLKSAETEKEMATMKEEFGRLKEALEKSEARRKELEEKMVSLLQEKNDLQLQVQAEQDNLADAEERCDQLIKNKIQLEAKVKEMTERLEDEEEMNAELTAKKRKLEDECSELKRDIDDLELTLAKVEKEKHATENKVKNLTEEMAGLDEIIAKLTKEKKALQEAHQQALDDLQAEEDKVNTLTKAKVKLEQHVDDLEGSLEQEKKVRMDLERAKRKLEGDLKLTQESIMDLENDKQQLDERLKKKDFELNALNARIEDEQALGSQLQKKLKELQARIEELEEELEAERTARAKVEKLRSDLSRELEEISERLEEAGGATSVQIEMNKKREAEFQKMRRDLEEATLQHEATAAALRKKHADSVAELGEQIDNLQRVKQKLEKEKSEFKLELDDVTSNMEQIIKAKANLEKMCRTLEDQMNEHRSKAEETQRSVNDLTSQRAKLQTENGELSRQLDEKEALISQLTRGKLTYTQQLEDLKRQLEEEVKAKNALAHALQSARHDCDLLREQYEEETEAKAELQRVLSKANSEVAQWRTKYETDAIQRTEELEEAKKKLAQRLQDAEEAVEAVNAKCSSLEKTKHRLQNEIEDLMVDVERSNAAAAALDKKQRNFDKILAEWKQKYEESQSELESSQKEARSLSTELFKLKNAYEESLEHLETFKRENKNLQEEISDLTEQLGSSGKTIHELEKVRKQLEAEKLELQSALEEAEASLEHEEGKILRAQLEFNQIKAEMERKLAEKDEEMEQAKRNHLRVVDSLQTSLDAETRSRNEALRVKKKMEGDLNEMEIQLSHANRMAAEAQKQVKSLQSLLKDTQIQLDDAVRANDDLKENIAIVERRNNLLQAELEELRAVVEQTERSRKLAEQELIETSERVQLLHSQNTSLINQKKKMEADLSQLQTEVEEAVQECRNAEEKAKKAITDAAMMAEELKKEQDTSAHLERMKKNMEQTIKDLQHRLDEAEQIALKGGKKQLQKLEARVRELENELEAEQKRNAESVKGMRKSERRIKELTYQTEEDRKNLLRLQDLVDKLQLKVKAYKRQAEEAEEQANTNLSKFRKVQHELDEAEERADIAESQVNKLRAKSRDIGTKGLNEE
Description: as §1, §2, §3, §4, §5
Cardiac Myofibril Isolation:
Myofibrils from porcine cardiac muscle was isolated from the left ventricle of Yucatan minipigs. Myofibrils were prepared using a method based upon those described in Herrmann et al. (1993) and summarized here. Minced tissue was homogenized for 50 sec with a Polytron homogenizer into 10 volumes (relative to weight in grams) of Isolation Buffer A (75 mM KCl, 10 mM Imidazole, 2 mM MgCl2, 2 mM EGTA, 1 mM NaN3, 1% v/v Triton X-100) supplemented with 4 mM Phosphocreatine, 1 mM ATP, 50 mM BDM, 1 mM DTT, 1 mM Benzamide HCl, 0.1 mM PMSF, 10 μM leupeptin, 5 μM pepstatin, and 10 mM EDTA. The myofibrils were recovered by centrifugation (Beckman Allegra 6R, 1200 g, 15 min) and resuspended in 10 volumes Isolation Buffer B (Buffer A above without supplemental reagents). The myofibrils were further homogenized described above and recovered by centrifugation for 7 mins. Cellular membranes and debris were removed by 3 washes in Isolation Buffer B, centrifuging each as before. […]

| SMILES | Rabbit Psoas IC25 ([1]; Table 8) | Porcine Atria IC25 ([2]; Table 8) | Porcine Ventricle IC25 ([3]; Table 8) | Rabbit Psoas IC25 ([1]; Table 7) | Porcine Atria IC25 ([2]; Table 7) | Porcine Ventricle IC25 ([3]; Table 7) |
| --- | --- | --- | --- | --- | --- | --- |
| Cc1ncc(C#N)nc1[C@H](C)NC(=O)CN1Cc2c(ccc(F)c2F)NC1=O [Compound B349] | 5320 nM | 220 nM | 830 nM | – | – | – |
| C[C@@H](NC(=O)CN1Cc2c(ccc(F)c2F)NC1=O)c1ccc(C#N)nn1 [Compound B16] | 1205 nM | 230 nM | 1057 nM | – | – | – |
| C[C@@H](NC(=O)CN1Cc2c(C#N)cccc2NC1=O)c1ncc(C#N)cc1F [Compound B125] | 1552 nM | 1620 nM | 100000 nM | – | – | – |
| COc1cnc([C@H](C)NC(=O)CN2Cc3cc(F)ccc3NC2=O)c(F)c1 [Compound B179] | 100000 nM | – | 100000 nM | – | – | – |
| C[C@H](NC(=O)CN1Cc2cc(F)cc(F)c2NC1=O)c1ccc(C#N)cc1F [Compound B29] | 124.5 nM | 110 nM | 682.4 nM | – | – | – |
| Cc1nc([C@@H](C)NC(=O)CN2Cc3c(ccc(F)c3F)NC2=O)cnc1C#N [Compound B338] | 17150 nM | 80 nM | 1670 nM | – | – | – |
| O=C(CN1Cc2c(ccc(F)c2F)NC1=O)N[C@H]1COc2cc(F)cc(F)c21 [Compound B148] | 498.5 nM | 850 nM | 5833 nM | – | – | – |
| Cc1ccc2c(c1F)CN(CC(=O)N[C@H](C)c1ccc(C#N)cc1F)C(=O)N2 [Compound B30] | 100000 nM | 70 nM | 100000 nM | – | – | – |
| C[C@H](NC(=O)[C@H](C)N1Cc2ncccc2NC1=O)c1ccc(F)cc1F [Compound N83] | – | – | – | 1802 nM | 740 nM | 100000 nM |
| C[C@@H](NC(=O)CN1C(=O)Nc2cccnc2C12CC2)c1ncc(C#N)cc1F [Compound N25] | – | – | – | 1324 nM | 13110 nM | 100000 nM |
| C[C@H](NC(=O)CN1Cc2c(F)cncc2NC1=O)c1ccc(F)cc1F [Compound N72, N-[(1S)-1-(2,4-Difluorophenyl)ethyl]-2-{5-fluoro-2-oxo-1H,4H-pyrido[3,4-d]pyrimidin-3-yl}acetamide] | – | – | – | 448.3 nM | 3140 nM | 39960 nM |
| O=C(CN1Cc2c(ccc(F)c2F)NC1=O)NC1COc2ccc(F)cc2C1 (single isomer, unassigned) [Compound B87] | 1110 nM | 190 nM | 2048 nM | – | – | – |
| O=C(CN1Cc2c(ccnc2Cl)NC1=O)N[C@H](c1ccc(F)cc1F)C(F)(F)F [Compound N101] | – | – | – | 155.4 nM | 270 nM | 1940 nM |
| C[C@H](NC(=O)[C@@H](C)N1Cc2c(ccc(F)c2F)NC1=O)c1ncc(C#N)cc1F [Compound B279] | 570 nM | 110 nM | 700 nM | – | – | – |
| Cc1cc(F)cc2c1NC(=O)N(CC(=O)N[C@H](C)c1ccc(C#N)cc1F)C2 [Compound B58] | 6712 nM | 1020 nM | 4230 nM | – | – | – |
